In ChEMBL document CHEMBL5523667, “Blood-stage antimalarial activity, favourable metabolic stability and in vivo toxicity of novel piperazine linked 7-chloroquinoline-triazole conjugates” (Eur J Med Chem, 2024):
pIC50, pKd: −log10 of the molar value. Blank lines part the entries; values can stand above or below the compound they belong to. The source made the active and inactive calls. No cut-off for these calls is given here.

Tests used:
Falcipain 2 = molecular target: T1, Falcipain 2 (Plasmodium falciparum, UniProt Q9N6S8); assay: Binding affinity to N-terminal 6His-tagged recombinant Plasmodium falciparum FP2 expressed in Escherichia coli M15 assessed as dissociation constant incubated for 15 mins in presence of lysine reactive dye by microscale thermophoretic analysis
T1 sequence (Q9N6S8 whole entry): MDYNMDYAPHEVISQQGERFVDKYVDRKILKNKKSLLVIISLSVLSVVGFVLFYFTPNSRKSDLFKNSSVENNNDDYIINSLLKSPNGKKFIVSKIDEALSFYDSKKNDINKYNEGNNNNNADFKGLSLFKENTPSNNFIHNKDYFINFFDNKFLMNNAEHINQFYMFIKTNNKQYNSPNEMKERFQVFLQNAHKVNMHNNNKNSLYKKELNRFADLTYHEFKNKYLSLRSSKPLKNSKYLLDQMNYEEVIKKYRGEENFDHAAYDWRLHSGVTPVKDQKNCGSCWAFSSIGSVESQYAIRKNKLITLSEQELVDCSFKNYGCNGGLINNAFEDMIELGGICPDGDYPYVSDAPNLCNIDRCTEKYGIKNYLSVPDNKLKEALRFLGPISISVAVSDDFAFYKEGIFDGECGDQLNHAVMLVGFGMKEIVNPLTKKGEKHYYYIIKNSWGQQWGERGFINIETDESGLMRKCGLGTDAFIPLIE

Plasmodium falciparum [1] = assay: Antimalarial activity against schizont stage Plasmodium falciparum infected in erythrocytes assessed as reduction in proteolytic activity at 5 uM pre-incubated for 1 hr followed by Z-Phe-Arg-AMC addition and measured after 5 to 10 mins by confocal microscopic analysis relative to control; assay type: functional, Erythrocyte; parameters: scale not given: the % may be the effect or the level left; settings: time 65-70 min
Plasmodium falciparum [2] = assay: Resistance index, ratio of IC50 for antimalarial activity against chloroquine-resistant Plasmodium falciparum K1 to IC50 for antimalarial activity against chloroquine-sensitive Plasmodium falciparum NF54; assay type: functional
Plasmodium falciparum [3] = assay: Antimalarial activity against chloroquine-resistant Plasmodium falciparum K1 assessed as inhibition of parasite growth by lactate dehydrogenase assay; assay type: functional, organism-based
[4] = Cytotoxicity against CHO cells assessed as reduction in cell viability by MTT assay; assay type: toxicity, cell-based; settings: Chinese hamster (Cricetulus griseus)
[5] = Selectivity index, ratio of IC50 for cytotoxicity against CHO cells to IC50 for antimalarial activity against chloroquine-sensitive Plasmodium falciparum NF54; assay type: toxicity, cell-based; settings: hamster, CHO cells versus Plasmodium falciparum NF54; read-out: Ratio IC50
Hemozoin = assay: Inhibition of beta-hematin formation in Plasmodium falciparum by UV-visible SpectraMax P340 plate reader analysis
Plasmodium falciparum [6] = assay: Antimalarial activity against chloroquine-sensitive Plasmodium falciparum NF54 assessed as inhibition of parasite growth by lactate dehydrogenase assay; assay type: functional, organism-based
Plasmodium falciparum [7] = assay: Antimalarial activity against chloroquine-sensitive Plasmodium falciparum 3D7 assessed as growth inhibition at 1 to 2 uM; assay type: functional, organism-based; settings: dose 1-2 µM
Plasmodium falciparum [8] = assay: Antimalarial activity against chloroquine-sensitive Plasmodium falciparum 3D7 assessed as growth inhibition at 1 uM relative to control; assay type: functional; parameters: scale not given: the % may be the effect or the level left
Plasmodium falciparum [9] = assay: Antimalarial activity against synchronized ring stage Plasmodium falciparum assessed as reduction in hemozoin level at 25 to 100 nM incubated for 20 hrs by absorbance based analysis; assay type: functional, organism-based; settings: dose 25-100 nM
Plasmodium falciparum [10] = assay: Antimalarial activity against synchronized ring stage Plasmodium falciparum assessed as accumulation of free heme at 25 to 100 nM incubated for 20 hrs by absorbance based analysis; assay type: functional, organism-based; settings: dose 25-100 nM
Plasmodium falciparum [11] = assay: Antimalarial activity against chloroquine-sensitive Plasmodium falciparum 3D7 assessed as growth inhibition at 1 uM; assay type: functional, organism-based

Compound: CC(C)C[C@H](NC(=O)[C@H]1O[C@@H]1C(=O)O)C(=O)NCCCCN=C(N)N [E-64]
pKd (Falcipain 2): 5.93
Activity (Plasmodium falciparum [1]): 100%

Compound: O=C(Cn1cc(CN2CCN(c3ccnc4cc(Cl)ccc34)CC2)nn1)Nc1ccc(F)cc1
Ratio IC50 (Plasmodium falciparum [2]): 1.77
pIC50 (Plasmodium falciparum [3]): 5.51
pIC50 [4]: 3.49
selectivity ratio [5]: 188
pIC50 (Hemozoin): 4.69
pIC50 (Plasmodium falciparum [6]): 5.76

pIC50 (Hemozoin): 4.76
Compound: Cc1cccc(NC(=O)Cn2cc(CN3CCN(c4ccnc5cc(Cl)ccc45)CC3)nn2)c1
pIC50 (Plasmodium falciparum [6]): 5.46

pIC50 (Hemozoin): 4.67
Compound: O=C(Cn1cc(CN2CCN(c3ccnc4cc(Cl)ccc34)CC2)nn1)Nc1ccccc1F
pIC50 (Plasmodium falciparum [6]): 5.50

Compound: Clc1ccc2c(N3CCN(Cc4cn(-c5ccnc6cc(Cl)ccc56)nn4)CC3)ccnc2c1
Activity (Plasmodium falciparum [7]): Active

Compound: Cc1ccccc1-n1cc(CN2CCN(c3ccnc4cc(Cl)ccc34)CC2)nn1
Activity (Plasmodium falciparum [8]): >50%

pIC50 (Hemozoin): 4.71
Compound: COc1ccc(NC(=O)Cn2cc(CN3CCN(c4ccnc5cc(Cl)ccc45)CC3)nn2)cc1
pIC50 (Plasmodium falciparum [6]): 5.17

pIC50 (Hemozoin): 4.67
Compound: O=C(Cn1cc(CN2CCN(c3ccnc4cc(Cl)ccc34)CC2)nn1)Nc1ccccc1[N+](=O)[O-]
pIC50 (Plasmodium falciparum [6]): 5.54

Compound: CCOC(=O)CNC(=O)Cn1cc(CN2CCN(c3ccnc4cc(Cl)ccc34)CC2)nn1
Activity (Plasmodium falciparum [7]): Active

pIC50 (Hemozoin): 5.08
Compound: O=C(Cn1cc(CN2CCN(c3ccnc4cc(Cl)ccc34)CC2)nn1)Nc1ccc(Cl)cc1
pIC50 (Plasmodium falciparum [6]): 5.33

pIC50 (Hemozoin): 4.63
Compound: CCN(CC)CCCC(C)Nc1ccnc2cc(Cl)ccc12 (configuration not stated) [CHLOROQUINE]
Activity (Plasmodium falciparum [9]): Active
Activity (Plasmodium falciparum [10]): Active

pIC50 (Hemozoin): 4.71
Compound: O=C(Cn1cc(CN2CCN(c3ccnc4cc(Cl)ccc34)CC2)nn1)Nc1ccc(Br)cc1
pIC50 (Plasmodium falciparum [6]): 5.19

Compound: O=C(Cn1cc(CN2CCN(c3ccnc4cc(Cl)ccc34)CC2)nn1)Nc1cccc(Cl)c1
Ratio IC50 (Plasmodium falciparum [2]): 4.74
pIC50 (Plasmodium falciparum [3]): 5.06
pIC50 [4]: < 3.30
selectivity ratio [5]: > 275
pIC50 (Hemozoin): 4.81
pIC50 (Plasmodium falciparum [6]): 5.74

Compound: Clc1ccc2c(N3CCN(Cc4cn(-c5cccc6ccccc56)nn4)CC3)ccnc2c1
Activity (Plasmodium falciparum [7]): inactive

pIC50 (Hemozoin): 4.96
Compound: CCN(CC)Cc1cc(Nc2ccnc3cc(Cl)ccc23)ccc1O [AMODIAQUINE]

pIC50 (Hemozoin): 4.85
Compound: COc1ccccc1NC(=O)Cn1cc(CN2CCN(c3ccnc4cc(Cl)ccc34)CC2)nn1
pIC50 (Plasmodium falciparum [6]): 5.49

Compound: Clc1ccc2c(N3CCN(Cc4cn(-c5ccnc6ccccc56)nn4)CC3)ccnc2c1
Activity (Plasmodium falciparum [7]): Active

pIC50 (Hemozoin): 4.90
Compound: COC(=O)c1ccc(NC(=O)Cn2cc(CN3CCN(c4ccnc5cc(Cl)ccc45)CC3)nn2)cc1
pIC50 (Plasmodium falciparum [6]): 5.38

Compound: Clc1ccc2c(N3CCN(Cc4cn(-c5ccccc5Cl)nn4)CC3)ccnc2c1
Activity (Plasmodium falciparum [8]): >50%

pIC50 (Hemozoin): 4.76
Compound: Cc1ccccc1NC(=O)Cn1cc(CN2CCN(c3ccnc4cc(Cl)ccc34)CC2)nn1
pIC50 (Plasmodium falciparum [6]): 5.38

Compound: O=C(Cn1cc(CN2CCN(c3ccnc4cc(Cl)ccc34)CC2)nn1)Nc1cccc(F)c1
Ratio IC50 (Plasmodium falciparum [2]): 1.7
pIC50 (Plasmodium falciparum [3]): 5.53
pIC50 [4]: 3.84
selectivity ratio [5]: 86.5
pIC50 (Hemozoin): 4.97
pIC50 (Plasmodium falciparum [6]): 5.77

pIC50 (Hemozoin): 4.70
Compound: O=C(Cn1cc(CN2CCN(c3ccnc4cc(Cl)ccc34)CC2)nn1)Nc1ccccc1
pIC50 (Plasmodium falciparum [6]): 5.30

pIC50 (Hemozoin): 4.54
Compound: O=C(Cn1cc(CN2CCN(c3ccnc4cc(Cl)ccc34)CC2)nn1)Nc1ccc([N+](=O)[O-])cc1
pIC50 (Plasmodium falciparum [6]): 5.49

Compound: O=C(OCc1cn(-c2ccnc3cc(Cl)ccc23)nn1)c1cccc([N+](=O)[O-])c1
Activity (Plasmodium falciparum [7]): inactive

Compound: COC(=O)[C@H](C)NC(=O)Cn1cc(COc2cccc3ccccc23)nn1
Activity (Plasmodium falciparum [7]): Active

Compound: COC(=O)[C@H](Cc1ccccc1)NC(=O)Cn1cc(CN2CCN(c3ccnc4cc(Cl)ccc34)CC2)nn1
Activity (Plasmodium falciparum [7]): Active

Compound: COC(=O)[C@H](C)NC(=O)Cn1cc(CN2CCN(c3ccnc4cc(Cl)ccc34)CC2)nn1
Activity (Plasmodium falciparum [11]): Active

Compound: O=C(Cn1cc(CN2CCN(c3ccnc4cc(Cl)ccc34)CC2)nn1)Nc1ccccc1Cl
Ratio IC50 (Plasmodium falciparum [2]): 3.29
pIC50 (Plasmodium falciparum [3]): 5.23
pIC50 [4]: 3.90
selectivity ratio [5]: 70.3
pIC50 (Hemozoin): 4.72
pIC50 (Plasmodium falciparum [6]): 5.75

pIC50 (Hemozoin): 4.76
Compound: COc1cccc(NC(=O)Cn2cc(CN3CCN(c4ccnc5cc(Cl)ccc45)CC3)nn2)c1
pIC50 (Plasmodium falciparum [6]): 5.45

Compound: Cc1ccc(NC(=O)Cn2cc(CN3CCN(c4ccnc5cc(Cl)ccc45)CC3)nn2)cc1
Ratio IC50 (Plasmodium falciparum [2]): 2.4
pIC50 (Plasmodium falciparum [3]): 5.36
pIC50 [4]: 4.47
selectivity ratio [5]: 18.8
pIC50 (Hemozoin): 4.73
pIC50 (Plasmodium falciparum [6]): 5.74

Compound: O=[N+]([O-])c1cccc(-n2cc(CN3CCN(c4ccnc5cc(Cl)ccc45)CC3)nn2)c1
Activity (Plasmodium falciparum [8]): >50%

Compound: C[C@@H](NC(=O)Cn1cc(CN2CCN(c3ccnc4cc(Cl)ccc34)CC2)nn1)C(=O)O
Activity (Plasmodium falciparum [7]): inactive
